Consider ten compounds from ChEMBL document CHEMBL1127438, “Substituted (S)-phenylpiperidines and rigid congeners as preferential dopamine autoreceptor antagonists: synthesis and structure-activity relationships” (J Med Chem, 1994).

By Ki is commonly meant the dissociation constant of the complex between target and ligand, obtained from inhibition or displacement.

Several values for one entry are separate records, joined by “and”; a condition that tells them apart may be missing. Equal values may be shown once.

One assay deals with Dopamine receptor. The assay is described as follows: Tested for in vitro binding affinity against cloned mammalian dopamine autoreceptor (DA) receptors expressed in CHO-K1 cells using [3H]U-86170 as radioligand. In kind it is cell-based.
Assay [1] deals with Rattus norvegicus. The assay is described as follows: Compound is evaluated for biochemical accumulation of DOPAC in nonpretreated habituated rats for subcuteneous dose of 100 micro mol/kg in rat striatum. In kind it is functional.
The subject of assay [2] is Rattus norvegicus. The assay is described as follows: Effect (60 min after administration of 200 (micro mol/kg) subcuteneous dose on DA release in brain dialysis model of rat striatum. It counts as functional.
For assay [3], the system named is Rattus norvegicus. The assay is described as follows: Compound is evaluated for locomotor activity in reserpine-pretreated habituated rats at 100 umol/kg of subcuteneous dose. In kind it is functional.
The species entered for assay [4] is Rattus norvegicus. The assay is described as follows: Compound is tested for concomitant ability to antagonize the locomotor activity induced by Di-Pr-5,6-ADTN. In kind it is functional.
The subject of assay [5] is Rattus norvegicus. The experiment in a line: Evaluated for locomotor activity in nonpretreated habituated rats at 100 umol/kg of subcuteneous dose. In kind it is functional. The arrangement: unit not given here.
The target in assay [6] is D(3) dopamine receptor (Rattus norvegicus, UniProt P19020). The assay is described as follows: Tested for in vitro binding affinity against cloned mammalian dopamine autoreceptor, expressed in CHO-K1 cells, using [3H]spiperone as radioligand. It counts as cell-based.
In assay [7] the test system is Rattus norvegicus. The assay is described as follows: Evaluated biochemically in reserpine-pretreated habituated rats for (100 umol/kg) subcuteneous dose in rat striatum (DOPAacc), Value expressed as counts/30 min. It counts as functional.
The test system of assay [8] is Rattus norvegicus. The experiment in a line: Evaluated for DOPA accumulation (DOPAacc) level in nonhabituated rats after subcuteneous dose (100 uM/kg) in rat striatum. It counts as functional.
In assay [9] the test system is Rattus norvegicus. The experiment in a line: Evaluated for DOPAC level in nonpretreated habituated rats after subcuteneous dose of 100 micro mol/kg in rat striatum. In kind it is functional.
Assay [10] concerns Rattus norvegicus. The assay is described as follows: Compound is evaluated biochemically in nonhabituated rats for (100 umol/kg) subcuteneous dose, Value expressed as locomotor activity (LMA). In kind it is functional.
The test system of assay [11] is Rattus norvegicus. The experiment in a line: Evaluated biochemically in nonpretreated habituated rats for (100 uM/kg) subcuteneous dose, Value expressed as locomotor activity (LMA). It counts as functional.
Assay [12] has as its system Rattus norvegicus. The assay is described as follows: Evaluated biochemically in reserpine-pretreated habituated rats for (100 umol/kg) subcuteneous dose, Value expressed as locomotor activity (LMA). It counts as functional.
Assay [13] concerns the target T1, D(2) dopamine receptor (Rattus norvegicus, UniProt P61169).
Description: Affinity against striatal dopamine D2 receptors using [3H]spiperone as radioligand in rats.
The target of assay [14] is T2, D(2) dopamine receptor (Homo sapiens, UniProt P14416). The assay is described as follows: biochemical.
Description: Affinity against recombinant dopamine receptor (DA) D2 expressed in CHO-K1 cells, using [3H]-spiperone as radioligand
The target in assay [15] is T2, D(2) dopamine receptor. The assay is described as follows: biochemical. The source holds these as a separate data set.
Description: In vitro binding affinity against cloned mammalian dopamine D2 autoreceptor, expressed in CHO-K1 cells, using [3H]U-86170 as radioligand
The target of assay [16] is T3, D(3) dopamine receptor (Homo sapiens, UniProt P35462). The assay is described as follows: Tested for in vitro binding affinity against cloned mammalian dopamine autoreceptor (DA) receptors expressed in CHO-K1 cells [3H]-spiperone as radioligand. In kind it is cell-based.
The target in assay [17] is T1, D(2) dopamine receptor. The assay is described as follows: Tested for affinity against striatal dopamine autoreceptor (DA) D2 receptors using [3H]spiperone as radioligand in rats.
The test system of assay [18] is Rattus norvegicus. The experiment in a line: Compound is evaluated for DOPA accumulation in reserpine-pretreated habituated rats at 100 micro mol/kg of subcuteneous dose in rat striatum. In kind it is functional.
For assay [19], the system named is Rattus norvegicus. The assay is described as follows: Compound is evaluated for DOPA accumulation in reserpine-pretreated habituated rats at 50 umol/kg of subcuteneous dose in rat striatum. In kind it is functional.
Assay [20] has as its system Rattus norvegicus. The experiment in a line: Evaluated for biochemical levels of DOPAC in nonpretreated habituated rats for subcuteneous dose of 100 micro mol/kg in rat striatum. It counts as functional.
Assay [21] deals with Rattus norvegicus. The experiment in a line: Evaluated for locomotor activity in nonpretreated habituated rats in 100 umol/kg of subcuteneous dose. It counts as functional. The arrangement: unit not given here.
Assay [22] concerns Rattus norvegicus. The assay is described as follows: Compound is evaluated for locomotor activity in nonpretreated habituated rats in 50 umol/kg of subcuteneous dose. It counts as functional.
The test system of assay [23] is Rattus norvegicus. The experiment in a line: Compound is evaluated biochemically in nonhabituated rats for (0.64 micro mol/kg) subcuteneous dose in rat striatum (DOPAacc). In kind it is functional.
Assay [24] deals with Rattus norvegicus. The experiment in a line: Compound is evaluated for DOPA accumulation in reserpine-pretreated habituated rats fat 3.2 micro mol/kg of subcuteneous dose in rat striatum. In kind it is functional.
For assay [25], the system named is Rattus norvegicus. The assay is described as follows: Effect (60 min after administration of 200 (1.6 micro mol/kg) subcuteneous dose on DA release in brain dialysis model of rat. It counts as functional.
Assay [26] has as its system Rattus norvegicus. The assay is described as follows: Compound is evaluated for locomotor activity in reserpine-pretreated habituated rats at 3.2 umol/kg) of subcuteneous dose. It counts as functional.
Assay [27] deals with Rattus norvegicus. The assay is described as follows: Compound is evaluated for locomotor activity in nonhabituated rats at 3.2 umol/kg of subcuteneous dose. In kind it is functional.
Assay [28] relates to Rattus norvegicus. The assay is described as follows: Compound is evaluated for locomotor activity in nonpretreated habituated rats in 25 umol/kg of subcuteneous dose. It counts as functional.
Assay [29] has as its system Rattus norvegicus. The experiment in a line: Compound is evaluated for DOPAC accumulation in nonpretreated habituated rats after subcuteneous dose of 100 micro mol/kg in rat striatum. It counts as functional.
In assay [30] the test system is Rattus norvegicus. The assay is described as follows: Compound is evaluated DOPA accumulation in nonhabituated rats for (1.3 micro mol/kg) subcuteneous dose in rat striatum. In kind it is functional.
Assay [31] concerns Rattus norvegicus. The assay is described as follows: Compound is tested for its ability to displace Di-Pr-5,6-ADTN at […] subcutaneous dose from rat striatal binding sites in vivo. It counts as functional.
The subject of assay [32] is Rattus norvegicus. The assay is described as follows: Effect (60 min after administration of 200 (5.3 umol/kg) subcuteneous dose on DA release in brain dialysis model of rat. It counts as functional.
In assay [33] the test system is Rattus norvegicus. The experiment in a line: Compound is evaluated for locomotor activity in nonpretreated habituated rats at 1.6 micro mol/kg of subcuteneous dose. In kind it is functional.
Assay [34] has as its system Rattus norvegicus. The experiment in a line: Compound is evaluated for locomotor activity in nonhabituated rats at 1.3 micro mol/kg of subcuteneous dose. In kind it is functional.
Assay [35] has as its system Rattus norvegicus. The experiment in a line: Compound is evaluated for DOPA accumulation in reserpine-pretreated habituated rats at 100 umol/kg of subcuteneous dose in rat striatum. It counts as functional.
Assay [36] concerns Rattus norvegicus. The assay is described as follows: Compound is evaluated for locomotor activity in reserpine-pretreated habituated rats at 100 micro mol/kg of subcuteneous dose. It counts as functional.
The target in assay [37] is T3, D(3) dopamine receptor. The experiment in a line: Tested for in vitro binding affinity against cloned mammalian dopamine D3 receptor, expressed in CHO-K1 cells, using [3H]spiperone as radioligand. It counts as cell-based.
Assay [38] deals with Rattus norvegicus. The experiment in a line: Compound is evaluated for DOPA accumulation (DOPAacc) level in nonhabituated rats after subcuteneous dose (100 uM/kg) in rat striatum. It counts as functional.
The subject of assay [39] is Rattus norvegicus. The assay is described as follows: Compound is evaluated for DOPA accumulation in nonpretreated habituated rats for subcuteneous dose of 100 micro mol/kg in rat striatum. In kind it is functional.
Assay [40] deals with Rattus norvegicus. The experiment in a line: Compound was tested in vivo for its ability to displace DA receptor agonist (Di-Pr-5,6-ADTN) from rat striatal binding sites at 0.25 uM/Kg sc. dose. It counts as functional.
For assay [41], the species on record is Rattus norvegicus. The experiment in a line: Compound was tested in vio for concomitant ability to antagonize the locomotor activity of rat induced by Di-Pr-5,6-ADTN. In kind it is functional.
Assay [42] concerns Rattus norvegicus. The experiment in a line: Evaluated biochemically in nonhabituated rats for (100 umol/kg) subcuteneous dose, Value expressed as locomotor activity (LMA). In kind it is functional.

T1 sequence (P61169 whole entry): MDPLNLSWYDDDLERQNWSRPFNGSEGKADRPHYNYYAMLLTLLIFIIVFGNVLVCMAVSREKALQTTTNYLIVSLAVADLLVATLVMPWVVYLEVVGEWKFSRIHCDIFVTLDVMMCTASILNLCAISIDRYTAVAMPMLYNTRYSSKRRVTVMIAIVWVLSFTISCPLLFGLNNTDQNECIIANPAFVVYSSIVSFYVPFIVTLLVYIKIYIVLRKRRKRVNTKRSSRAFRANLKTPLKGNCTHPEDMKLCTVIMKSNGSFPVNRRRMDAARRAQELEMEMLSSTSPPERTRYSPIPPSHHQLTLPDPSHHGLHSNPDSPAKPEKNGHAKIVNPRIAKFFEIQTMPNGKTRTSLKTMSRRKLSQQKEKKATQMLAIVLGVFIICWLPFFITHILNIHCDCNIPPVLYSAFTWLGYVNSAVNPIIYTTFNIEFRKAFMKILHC
T2 sequence (P14416 whole entry): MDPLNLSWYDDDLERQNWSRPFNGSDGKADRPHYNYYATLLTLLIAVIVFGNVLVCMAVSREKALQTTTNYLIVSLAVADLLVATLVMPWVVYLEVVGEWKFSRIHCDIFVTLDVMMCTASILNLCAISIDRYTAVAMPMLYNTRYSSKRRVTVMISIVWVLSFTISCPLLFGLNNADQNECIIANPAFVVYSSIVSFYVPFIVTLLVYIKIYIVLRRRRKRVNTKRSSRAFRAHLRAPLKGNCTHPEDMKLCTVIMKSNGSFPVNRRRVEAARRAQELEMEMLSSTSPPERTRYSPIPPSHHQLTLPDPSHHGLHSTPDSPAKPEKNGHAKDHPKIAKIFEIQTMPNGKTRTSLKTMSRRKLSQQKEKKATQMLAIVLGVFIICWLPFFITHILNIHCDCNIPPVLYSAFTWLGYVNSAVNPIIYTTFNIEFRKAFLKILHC
T3 sequence (P35462 whole entry): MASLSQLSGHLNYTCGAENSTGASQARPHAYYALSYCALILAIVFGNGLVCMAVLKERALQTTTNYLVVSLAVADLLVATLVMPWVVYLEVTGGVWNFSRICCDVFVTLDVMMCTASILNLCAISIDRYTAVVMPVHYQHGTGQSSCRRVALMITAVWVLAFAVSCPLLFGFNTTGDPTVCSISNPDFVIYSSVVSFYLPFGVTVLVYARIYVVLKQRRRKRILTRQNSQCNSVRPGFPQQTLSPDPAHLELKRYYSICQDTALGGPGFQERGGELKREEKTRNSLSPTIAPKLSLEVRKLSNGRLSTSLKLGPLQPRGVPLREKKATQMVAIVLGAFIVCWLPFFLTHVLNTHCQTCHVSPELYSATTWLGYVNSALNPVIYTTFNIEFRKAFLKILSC
Chain of D(3) dopamine receptor (Rattus norvegicus, UniProt P19020) (P19020 whole entry): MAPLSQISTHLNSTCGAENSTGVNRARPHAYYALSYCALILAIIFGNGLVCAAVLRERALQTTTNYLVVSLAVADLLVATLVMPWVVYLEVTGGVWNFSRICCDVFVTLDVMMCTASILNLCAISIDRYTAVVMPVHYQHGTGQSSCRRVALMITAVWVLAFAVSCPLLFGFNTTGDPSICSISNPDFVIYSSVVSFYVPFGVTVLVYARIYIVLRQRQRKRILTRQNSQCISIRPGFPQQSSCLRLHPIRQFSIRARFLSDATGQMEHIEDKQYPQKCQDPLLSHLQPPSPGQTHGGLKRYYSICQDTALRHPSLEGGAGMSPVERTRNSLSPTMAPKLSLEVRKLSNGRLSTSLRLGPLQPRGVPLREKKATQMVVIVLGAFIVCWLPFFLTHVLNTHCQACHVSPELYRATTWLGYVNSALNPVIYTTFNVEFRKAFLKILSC

`CCCN1CCC[C@@H](c2cccc(OS(=O)(=O)C(F)(F)F)c2)C1` returned a Ki at Dopamine receptor of 40 nM. Moreover, the Activity in the assay on Rattus norvegicus [1] was 264% and 89%; in the assay on Rattus norvegicus [2] it was 223%. For the same compound, the LMA was 26 with Rattus norvegicus [3], 78% in the assay filed under Rattus norvegicus [4] and 290 in the assay with Rattus norvegicus [5].
On to `CCCN1CCC[C@@H](c2cccc(OC)c2)C1`, for which the inhibition constant (Ki) on D(3) dopamine receptor [6] is 1330 nM; at D(2) dopamine receptor [13] it was 3440 nM; on D(2) dopamine receptor [14] it was more than 217 nM; at D(2) dopamine receptor [15], 602 nM. Further, the Activity in the assay with Rattus norvegicus [7] is recorded as 66%; with Rattus norvegicus [8], 131%; with Rattus norvegicus [9], 149%. The Control with Rattus norvegicus [10] was determined as 160%; in the assay on Rattus norvegicus [11] it was 463%; in the assay with Rattus norvegicus [12] it was 23%.
Regarding `CCCN1CCCC2c3cccc(OS(=O)(=O)C(F)(F)F)c3CCC21` (stereo in doubt; 46), the Ki at Dopamine receptor was 21 nM; at D(3) dopamine receptor [16], 22 nM; at D(2) dopamine receptor [17], 64 nM; at D(2) dopamine receptor [14], more than 217 nM. Moreover, the Activity in the assay with Rattus norvegicus [18] stood at 62%; with Rattus norvegicus [19], 85%; in the assay with Rattus norvegicus [20], 263%. For the same compound, the LMA with Rattus norvegicus [21] was 200; with Rattus norvegicus [22], 211.
With `CN1CCc2cccc3c2[C@H]1Cc1ccc(O)c(O)c1-3` [APOMORPHINE], the Activity is recorded as 53% with Rattus norvegicus [23], 65% with Rattus norvegicus [20], 20% in the assay with Rattus norvegicus [24] and 37% in the assay with Rattus norvegicus [25]. For the same compound, the LMA in the assay on Rattus norvegicus [26] stood at 366; with Rattus norvegicus [27], 277; in the assay on Rattus norvegicus [28] it was 491.
Regarding `CCCN1CCC[C@@H](c2cccc(N)c2)C1`, the Activity in the assay with Rattus norvegicus [7] amounted to 91%; with Rattus norvegicus [29] it was 128%. Also, the Control in the assay on Rattus norvegicus [11] was determined as 113%; with Rattus norvegicus [12], 72%. The Ki at D(2) dopamine receptor [13] is 2000 nM; on D(2) dopamine receptor [14] it was more than 217 nM.
Turning to `O=C(CCCN1CCC(O)(c2ccc(Cl)cc2)CC1)c1ccc(F)cc1` [HALOPERIDOL], the Activity came to 356% with Rattus norvegicus [30], 404% in the assay on Rattus norvegicus [20], 82% with Rattus norvegicus [31] and 211% with Rattus norvegicus [32]. In addition, the LMA is given as 7% in the assay filed under Rattus norvegicus [4], 61 in the assay on Rattus norvegicus [33] and 2 in the assay on Rattus norvegicus [34].
As for `CCCN1CCC[C@@H](c2cccc(SC)c2)C1`, the Ki is 49 nM at Dopamine receptor, 139 nM on D(3) dopamine receptor [16], 849 nM on D(2) dopamine receptor [17] and more than 217 nM at D(2) dopamine receptor [14]. Moreover, the Activity with Rattus norvegicus [35] turned out to be 92%; in the assay on Rattus norvegicus [20], 118%. Further, the LMA is 313 with Rattus norvegicus [5] and 5 in the assay on Rattus norvegicus [36].
`CCCN1CCC[C@@H](c2cccc(OCC(F)(F)F)c2)C1`: the Ki is 1410 nM on D(3) dopamine receptor [37], 1670 nM at D(2) dopamine receptor [13], more than 217 nM at D(2) dopamine receptor [14] and 820 nM on D(2) dopamine receptor [15]. The Control stood at 96% in the assay with Rattus norvegicus [38] and 90% with Rattus norvegicus [10].
`CCCc1cccc([C@@H]2CCCN(CCC)C2)c1`: the Ki is 57 nM at Dopamine receptor, 86 nM on D(3) dopamine receptor [16], 392 nM at D(2) dopamine receptor [17] and more than 217 nM at D(2) dopamine receptor [14]. Also, the Activity with Rattus norvegicus [39] stood at 190%; in the assay on Rattus norvegicus [18], 62%; with Rattus norvegicus [20] it was 181%. For the same compound, the LMA with Rattus norvegicus [18] was found to be 734.
`CCN1CCCC1CNC(=O)c1c(OC)ccc(Br)c1OC` (single isomer, unassigned) [REMOXIPRIDE]: the Activity is reported as 104% in the assay on Rattus norvegicus [7], 411% with Rattus norvegicus [8] and 313% in the assay on Rattus norvegicus [9]. For the same compound, the Control in the assay with Rattus norvegicus [40] is listed as 48%; in the assay with Rattus norvegicus [12] it was 5%. Moreover, the LMA in the assay filed under Rattus norvegicus [41] came to 91%. The “Locomotor activity (% of control)” value with Rattus norvegicus [42] is 60%.
